According to ChEMBL document CHEMBL5653615 (J Biol Chem, 2013):

Legend:
[1] = target: Casein kinase II subunit alpha' (Homo sapiens) (UniProt P19784); assay: Inhibition of human CK2a2 at 500 nM by HotSpot assay relative to control
[2] = target: Phosphorylase b kinase gamma catalytic chain, skeletal muscle/heart isoform (Homo sapiens) (UniProt Q16816); assay: Inhibition of human PHKg1 at 500 nM by HotSpot assay relative to control
[3] = target: T1, Mitogen-activated protein kinase kinase kinase 5 (Homo sapiens) (UniProt Q99683); assay: Inhibition of human ASK1 at 500 nM by HotSpot assay relative to control
T1 sequence (whole entry): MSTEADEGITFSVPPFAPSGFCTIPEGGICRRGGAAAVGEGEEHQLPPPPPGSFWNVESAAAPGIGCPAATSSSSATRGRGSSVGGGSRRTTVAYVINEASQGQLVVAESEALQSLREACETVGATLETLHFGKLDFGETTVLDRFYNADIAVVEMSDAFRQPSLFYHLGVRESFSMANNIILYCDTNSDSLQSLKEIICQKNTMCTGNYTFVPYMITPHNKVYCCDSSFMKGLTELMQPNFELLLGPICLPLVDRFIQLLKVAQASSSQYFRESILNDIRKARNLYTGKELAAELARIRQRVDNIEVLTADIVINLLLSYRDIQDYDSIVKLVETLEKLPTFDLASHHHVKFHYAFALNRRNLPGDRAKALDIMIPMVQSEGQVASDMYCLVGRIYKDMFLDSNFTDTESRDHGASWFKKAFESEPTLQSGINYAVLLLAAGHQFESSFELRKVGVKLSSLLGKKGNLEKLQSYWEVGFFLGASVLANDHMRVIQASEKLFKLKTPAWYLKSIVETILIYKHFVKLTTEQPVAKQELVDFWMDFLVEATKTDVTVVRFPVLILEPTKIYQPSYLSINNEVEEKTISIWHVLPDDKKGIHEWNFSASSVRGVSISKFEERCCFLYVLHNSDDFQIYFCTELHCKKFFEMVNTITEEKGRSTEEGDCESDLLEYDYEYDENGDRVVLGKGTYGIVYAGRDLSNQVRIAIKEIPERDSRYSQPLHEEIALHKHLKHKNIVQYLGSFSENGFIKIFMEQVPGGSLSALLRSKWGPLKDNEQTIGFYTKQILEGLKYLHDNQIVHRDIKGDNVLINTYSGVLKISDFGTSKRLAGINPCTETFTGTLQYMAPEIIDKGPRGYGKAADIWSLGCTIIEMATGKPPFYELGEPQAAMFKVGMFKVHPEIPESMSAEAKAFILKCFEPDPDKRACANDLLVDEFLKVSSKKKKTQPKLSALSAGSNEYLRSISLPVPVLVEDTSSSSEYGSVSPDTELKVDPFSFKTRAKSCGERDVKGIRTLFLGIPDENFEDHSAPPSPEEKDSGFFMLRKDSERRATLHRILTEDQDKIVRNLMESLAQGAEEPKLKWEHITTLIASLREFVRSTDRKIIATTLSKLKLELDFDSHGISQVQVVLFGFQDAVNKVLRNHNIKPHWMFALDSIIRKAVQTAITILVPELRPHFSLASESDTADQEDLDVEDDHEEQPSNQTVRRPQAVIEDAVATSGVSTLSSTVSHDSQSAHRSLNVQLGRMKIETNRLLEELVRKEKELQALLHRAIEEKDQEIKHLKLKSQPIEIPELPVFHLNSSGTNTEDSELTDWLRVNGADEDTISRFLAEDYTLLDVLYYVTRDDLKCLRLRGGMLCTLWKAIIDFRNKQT

[4] = target: Protein kinase C beta type (Homo sapiens) (UniProt P05771); assay: Inhibition of human PKCb2 at 500 nM by HotSpot assay relative to control
[5] = target: Interleukin-1 receptor-associated kinase 1 (Homo sapiens) (UniProt P51617); assay: Inhibition of human IRAK1 at 500 nM by HotSpot assay relative to control
[6] = target: Receptor tyrosine-protein kinase erbB-2 (Homo sapiens) (UniProt P04626); assay: Inhibition of human ERBB2 at 500 nM by HotSpot assay relative to control
[7] = target: T2, Muscle, skeletal receptor tyrosine-protein kinase (Homo sapiens) (UniProt O15146); assay: Inhibition of human MUSK at 500 nM by HotSpot assay relative to control
T2 sequence (whole entry): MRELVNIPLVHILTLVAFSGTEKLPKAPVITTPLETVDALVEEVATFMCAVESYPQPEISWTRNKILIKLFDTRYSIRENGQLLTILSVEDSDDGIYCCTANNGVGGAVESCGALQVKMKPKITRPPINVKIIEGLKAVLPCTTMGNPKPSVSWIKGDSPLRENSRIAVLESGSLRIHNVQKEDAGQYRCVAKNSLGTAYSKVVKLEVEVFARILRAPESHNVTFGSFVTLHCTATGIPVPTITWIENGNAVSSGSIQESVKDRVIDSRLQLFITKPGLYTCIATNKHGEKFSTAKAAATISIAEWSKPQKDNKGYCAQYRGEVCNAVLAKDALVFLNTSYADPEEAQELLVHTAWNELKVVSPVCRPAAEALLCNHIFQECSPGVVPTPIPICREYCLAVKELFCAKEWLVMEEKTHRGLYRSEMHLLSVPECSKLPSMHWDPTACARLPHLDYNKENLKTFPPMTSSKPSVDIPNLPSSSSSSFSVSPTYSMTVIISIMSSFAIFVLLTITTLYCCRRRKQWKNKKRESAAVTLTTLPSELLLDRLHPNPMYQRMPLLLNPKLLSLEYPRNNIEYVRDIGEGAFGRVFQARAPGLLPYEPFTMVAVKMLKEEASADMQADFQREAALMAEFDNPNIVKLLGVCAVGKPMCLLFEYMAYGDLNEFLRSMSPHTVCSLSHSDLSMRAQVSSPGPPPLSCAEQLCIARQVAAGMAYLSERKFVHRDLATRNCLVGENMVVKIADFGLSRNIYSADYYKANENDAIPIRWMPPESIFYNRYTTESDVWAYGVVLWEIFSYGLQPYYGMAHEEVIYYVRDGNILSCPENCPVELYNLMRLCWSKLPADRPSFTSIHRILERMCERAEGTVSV

Chain of Protein kinase C beta type (Homo sapiens) (P05771 2-671 limits assumed): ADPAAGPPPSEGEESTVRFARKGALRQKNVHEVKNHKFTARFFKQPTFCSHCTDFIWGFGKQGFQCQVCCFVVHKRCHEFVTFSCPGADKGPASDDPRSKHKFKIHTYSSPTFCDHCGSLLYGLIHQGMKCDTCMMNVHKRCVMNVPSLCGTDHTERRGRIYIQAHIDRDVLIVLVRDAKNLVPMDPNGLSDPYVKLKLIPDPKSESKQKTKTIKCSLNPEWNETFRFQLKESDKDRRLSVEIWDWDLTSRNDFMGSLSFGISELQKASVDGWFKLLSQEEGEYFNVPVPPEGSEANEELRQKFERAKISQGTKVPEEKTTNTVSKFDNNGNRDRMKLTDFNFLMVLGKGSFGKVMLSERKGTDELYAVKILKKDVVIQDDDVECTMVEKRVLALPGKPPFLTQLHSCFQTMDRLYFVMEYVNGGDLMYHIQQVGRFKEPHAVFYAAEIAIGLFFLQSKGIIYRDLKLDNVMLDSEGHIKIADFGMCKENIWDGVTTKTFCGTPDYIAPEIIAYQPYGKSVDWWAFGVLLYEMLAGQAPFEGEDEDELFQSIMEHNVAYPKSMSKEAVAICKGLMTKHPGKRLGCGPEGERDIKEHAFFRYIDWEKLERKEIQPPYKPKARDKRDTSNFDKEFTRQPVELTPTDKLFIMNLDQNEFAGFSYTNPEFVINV
Chain of Phosphorylase b kinase gamma catalytic chain, skeletal muscle/heart isoform (Homo sapiens) (Q16816 whole entry, looked up, canonical isoform): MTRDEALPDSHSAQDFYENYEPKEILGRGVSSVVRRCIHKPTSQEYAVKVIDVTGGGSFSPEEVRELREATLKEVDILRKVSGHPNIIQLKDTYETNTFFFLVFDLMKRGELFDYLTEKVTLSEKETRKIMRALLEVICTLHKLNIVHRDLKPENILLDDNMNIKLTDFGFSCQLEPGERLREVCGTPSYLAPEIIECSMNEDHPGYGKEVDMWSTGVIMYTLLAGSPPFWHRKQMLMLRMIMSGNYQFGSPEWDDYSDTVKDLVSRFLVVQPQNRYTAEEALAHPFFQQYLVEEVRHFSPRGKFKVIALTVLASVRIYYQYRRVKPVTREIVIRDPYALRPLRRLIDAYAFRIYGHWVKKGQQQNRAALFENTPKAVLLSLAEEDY
Chain of Receptor tyrosine-protein kinase erbB-2 (Homo sapiens) (P04626 whole entry): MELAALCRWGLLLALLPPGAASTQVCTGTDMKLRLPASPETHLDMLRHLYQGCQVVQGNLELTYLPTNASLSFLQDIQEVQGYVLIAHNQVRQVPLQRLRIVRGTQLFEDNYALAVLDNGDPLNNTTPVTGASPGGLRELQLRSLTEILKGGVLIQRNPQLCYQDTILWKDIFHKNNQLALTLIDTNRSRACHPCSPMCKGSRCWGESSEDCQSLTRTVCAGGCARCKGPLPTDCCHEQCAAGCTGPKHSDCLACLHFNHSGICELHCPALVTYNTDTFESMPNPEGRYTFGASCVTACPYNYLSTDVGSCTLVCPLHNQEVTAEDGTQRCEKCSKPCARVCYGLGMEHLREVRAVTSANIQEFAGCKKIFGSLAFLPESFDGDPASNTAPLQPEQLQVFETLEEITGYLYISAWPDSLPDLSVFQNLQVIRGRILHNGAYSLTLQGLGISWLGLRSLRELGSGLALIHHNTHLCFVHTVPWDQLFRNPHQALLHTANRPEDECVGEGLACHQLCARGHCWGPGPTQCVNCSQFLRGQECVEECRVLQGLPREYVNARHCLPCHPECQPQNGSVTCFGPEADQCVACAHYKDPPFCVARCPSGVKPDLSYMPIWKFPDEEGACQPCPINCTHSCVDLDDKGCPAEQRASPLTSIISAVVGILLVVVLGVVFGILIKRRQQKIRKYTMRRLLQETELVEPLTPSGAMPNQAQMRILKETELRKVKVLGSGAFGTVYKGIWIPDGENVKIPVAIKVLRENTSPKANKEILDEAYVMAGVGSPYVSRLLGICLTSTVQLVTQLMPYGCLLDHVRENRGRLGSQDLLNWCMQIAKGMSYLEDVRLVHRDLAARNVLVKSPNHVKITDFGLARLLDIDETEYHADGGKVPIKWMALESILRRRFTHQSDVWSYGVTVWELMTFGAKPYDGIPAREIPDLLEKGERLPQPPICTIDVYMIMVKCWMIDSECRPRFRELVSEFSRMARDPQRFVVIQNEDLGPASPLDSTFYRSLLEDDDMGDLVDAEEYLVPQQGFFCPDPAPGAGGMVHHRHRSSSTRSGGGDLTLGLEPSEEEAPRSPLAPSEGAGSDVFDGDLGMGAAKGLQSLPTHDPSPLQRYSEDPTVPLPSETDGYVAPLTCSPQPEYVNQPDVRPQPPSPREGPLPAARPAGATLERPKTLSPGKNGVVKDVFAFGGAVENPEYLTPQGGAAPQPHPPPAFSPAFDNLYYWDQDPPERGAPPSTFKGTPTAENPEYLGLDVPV
Chain of Interleukin-1 receptor-associated kinase 1 (Homo sapiens) (P51617 whole entry, looked up): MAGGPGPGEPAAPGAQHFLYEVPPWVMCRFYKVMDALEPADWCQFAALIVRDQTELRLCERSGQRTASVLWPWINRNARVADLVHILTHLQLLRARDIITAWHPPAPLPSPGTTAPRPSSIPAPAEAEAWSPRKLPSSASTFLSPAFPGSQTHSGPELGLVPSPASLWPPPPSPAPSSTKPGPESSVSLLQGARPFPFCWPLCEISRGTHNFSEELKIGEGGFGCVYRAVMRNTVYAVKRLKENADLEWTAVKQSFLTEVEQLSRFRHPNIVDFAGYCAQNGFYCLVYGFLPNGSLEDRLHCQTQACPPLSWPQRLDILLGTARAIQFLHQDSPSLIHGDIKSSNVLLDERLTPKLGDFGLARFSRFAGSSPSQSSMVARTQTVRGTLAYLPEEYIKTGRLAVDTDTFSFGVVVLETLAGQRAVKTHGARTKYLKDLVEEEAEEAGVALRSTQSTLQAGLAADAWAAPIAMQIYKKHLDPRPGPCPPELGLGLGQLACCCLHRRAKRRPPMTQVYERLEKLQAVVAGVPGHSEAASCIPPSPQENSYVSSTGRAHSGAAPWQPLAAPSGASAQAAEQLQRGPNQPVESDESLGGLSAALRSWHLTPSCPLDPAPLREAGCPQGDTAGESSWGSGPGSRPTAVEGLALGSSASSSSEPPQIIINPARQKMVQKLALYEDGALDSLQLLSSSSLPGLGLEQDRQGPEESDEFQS
Chain of Casein kinase II subunit alpha' (Homo sapiens) (P19784 whole entry, looked up, canonical isoform): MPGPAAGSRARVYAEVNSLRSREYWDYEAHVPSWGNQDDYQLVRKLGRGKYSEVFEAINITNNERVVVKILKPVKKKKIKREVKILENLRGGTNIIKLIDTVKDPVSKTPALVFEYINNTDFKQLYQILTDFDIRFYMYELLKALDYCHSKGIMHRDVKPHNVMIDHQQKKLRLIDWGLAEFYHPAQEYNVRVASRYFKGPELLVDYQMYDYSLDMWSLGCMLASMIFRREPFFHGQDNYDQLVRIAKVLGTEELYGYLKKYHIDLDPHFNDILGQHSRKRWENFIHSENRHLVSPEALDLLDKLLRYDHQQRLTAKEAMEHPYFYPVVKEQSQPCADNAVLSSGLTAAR

SMILES	inhibition [1] [%]	inhibition [2] [%]	inhibition [3] [%]	inhibition [4] [%]	inhibition [5] [%]	inhibition [6] [%]	inhibition [7] [%]
Oc1n[nH]c2nnc(-c3c(-c4ccccc4)nn4ccccc34)cc12	6.97	-1.18	0.05	-2.98	-2.21	-4.85	3.28
Nc1n[nH]c2nnc(-c3c(-c4ccccc4)nn4ccccc34)cc12	6.59	-0.96	0.68	0.34	0.31	-4.95	3.22
